Reference: patent US20250325573A1, “Anti-Cancer Saccharide-Linked Dithiocarbamate Compounds” (Anglia Ruskin University Higher Education Corporation, priority 2022, published 2025)

Experiments:
Format in all cases: cell-based
[1] = tested on: MDA-MB-231; test: MTT cytotoxicity assay, breast cancer cell line MDA-MB-231
[2] = tested on: lung cancer cell line A549; test: Microscopy images of lung cancer cells A549; details: for cytotoxicity against lung cancer cells (microscopy): with and without copper(II) 10 μM, boosted by adding copper
[3] = tested on: breast cancer cell line MDA-MB-231; test: Microscopy images of breast cancer cells MDA-MB-231; details: for concentration showing apoptotic signs (shrinkage, cell detachment, membrane blebbing): 24 hours of incubation
[4] = tested on: A549; test: MTT cytotoxicity assay, lung cancer cell line A549
[5] = tested on: H630 WT; test: MTT cytotoxicity assay, colorectal cancer cell line H630 WT; details: 72 h
Description: (§1) The H630 WT (passage 12-21) and H630 R10 (passage 4-13) cells were seeded in 96-well plates at seeding density of 1×10^4 cells/well in Dulbecco's modified Eagle's medium (DMEM) with 10% FBS, 1 mM sodium pyruvate, 2 mM L-glutamine and 0.1 mM non-essential amino acids. Cells were incubated at 37° C., 5% CO2 and 95% relative humidity. Cells were constantly exposed to different concentrations of the tested compound in combination with 10 μM of CuCl2 for 72 h and then subjected to a standard 3-(4,5-Dimethylthiazol-2-yl)-2,5-Diphenyltetrazolium bromide (MTT) assay. The experiments were carried out in triplicates and the IC50 values were calculated (see FIG. 2).

[6] = tested on: H630 R10; test: MTT cytotoxicity assay, colorectal cancer cell line H630 R10 (resistant to 5FU 10 μM); details: 72 h
Description: as §1
5FU was purchased from Sigma Aldrich, Dorset, UK.

[7] = tested on: colorectal cancer cell line H630 WT; test: Microscopy images of colorectal cancer cells H630 WT; details: 500 μM, copper(II) 10 μM, 72 hours
[8] = comparative agent as listed, no added metal named
[9] = Homo sapiens, NCI-H630, with Cu (10 μM CuCl2)
[10] = Homo sapiens, MDA-MB-231, 72 h, with Cu (10 μM CuCl2)
[11] = Homo sapiens, MDA-MB-231, 72 h, without copper(II)
[12] = Homo sapiens, A549, 72 h, with Cu (10 μM CuCl2)
[13] = Homo sapiens, NCI-H630, comparative agent as listed, no added metal named

CCN(CC)C(=S)SC1O[C@H](CO)[C@@H](O)[C@H](O)[C@H]1O (stereo in doubt) [Ga-DDC, Galactosyl diethyldithiocarbamate]
IC50 ([1]; with Cu (10 μM CuCl2), 72 h): 17.7 ± 8.2 µM

O=CC[C@@H](O)[C@H](O)[C@H](O)CO [2-deoxy-glucose, reference compound]
cytotoxic effect (microscopy) ([2]; 1 mM, with or without copper(II), 72 h): no cytotoxic effect
concentration showing slight toxicity effect (cells started to detach) ([2]; without copper(II), 24 hours): 8 mM
features of apoptosis ([3]; 1000 μM, with copper(II) 10 μM, 24 hours): no features of apoptosis
concentration showing slight toxicity effect (cells started to detach) ([3]; without copper(II), 24 hours): 8 mM

CCN(CC)C(=S)[S-].CCN(CC)C(=S)[S-].[Cu+2] [(DDC)2Cu, Cu(II) bis(N,N-diethyldithiocarbamate) complex, reference compound]
IC50 ([4]; comparative agent as listed, no added metal named, 72 h): 3.6 ± 0.7 µM
IC50 [5, 8]: 5.9 ± 1.1 µM
IC50 [6, 8]: 4.9 ± 1.6 µM

CCN(CC)C(=S)SC1OC(CO)C(O)C(O)C1NC(C)=O (stereo not shown) [AG-DDC, 2-N-acetyl-glycosylamine diethyldithiocarbamate]
IC50 [5, 9]: 5.8 ± 1.2 µM

CCN(CC)C(=S)SC1CC(O)C(O)C(CO)O1 (stereo not shown) [DG-DDC, 2-Deoxy-glycosyl diethyldithiocarbamate]
IC50 [1, 10]: 3.62 ± 0.22 µM
IC50 [1, 11]: 2060 ± 54.7 µM
IC50 [4, 12]: 2.79 ± 0.25 µM
IC50 ([4]; Homo sapiens, A549, 72 h, with Zn (ZnCl2 10 μM)): 49.6 ± 18.6 µM
IC50 [5, 9]: 5.2 ± 1.7 µM
observation in cells (microscopy) [7]: Cu(II) bis(N,N-diethyldithiocarbamate) complex crystals
cytotoxicity against lung cancer cells (microscopy) ([2]; 72 h): cytotoxic
toxic effect compared to glycosyl diethyldithiocarbamate at similar concentrations ([2]; without copper(II), 24 hours): more toxic effect
IC50 [6, 9]: 5.3 ± 0.9 µM
concentration showing apoptotic signs (shrinkage, cell detachment, membrane blebbing) ([3]; with copper(II) 10 μM): 25 µM
toxic effect compared to glycosyl diethyldithiocarbamate at similar concentrations ([3]; without copper(II), 24 hours): more toxic effect

CCN(CC)C(=S)SSC(=S)N(CC)CC [DS, disulfiram, reference compound]
IC50 [1, 11]: > 8000 µM

O=c1[nH]cc(F)c(=O)[nH]1 [Example 5FU, fluorouracil, reference compound]
IC50 [5, 13]: 4.6 ± 1.6 µM
IC50 [6, 13]: 462 ± 8 µM

CCN(CC)C(=S)SC1O[C@H](CO)[C@@H](O)[C@H](O)[C@H]1O (stereo partly shown) [G-DDC, Glycosyl diethyldithiocarbamate]
IC50 [1, 11]: 2180 ± 356 µM
IC50 ([1]; with Cu (10 μM CuCl2), 72 h): 348 ± 44.7 µM
IC50 [4, 12]: 95.9 ± 21.3 µM
IC50 [5, 9]: 127 ± 13.2 µM
cytotoxicity against lung cancer cells (microscopy) ([2]; 72 h): cytotoxic
concentration showing signs of apoptosis (shrinkage, cell detachment) ([2]; without copper(II), 24 hours): 8 mM
concentration showing slight toxicity effect (cells started to detach) ([2]; without copper(II), 24 hours): 4 mM
concentration showing apoptotic signs (shrinkage, cell detachment, membrane blebbing) ([3]; with copper(II) 10 μM): 250 µM
concentration showing signs of apoptosis (shrinkage, cell detachment) ([3]; without copper(II), 24 hours): 8 mM
concentration showing slight toxicity effect (cells started to detach) ([3]; without copper(II), 24 hours): 4 mM

CCN(CC)C(=S)SC1O[C@H](CO)[C@@H](O[C@@H]2O[C@H](CO)[C@H](O)[C@H](O)[C@H]2O)[C@H](O)[C@H]1O (stereo partly shown) [La-DDC, Lactosyl diethyldithiocarbamate]
IC50 [1, 10]: 89.7 ± 12.6 µM

CCN(CC)C(=S)SC1O[C@H](CO)[C@@H](O)[C@H](O)[C@@H]1O (stereo partly shown) [Ma-DDC, Mannosyl diethyldithiocarbamate]
IC50 [1, 10]: 78.6 ± 12.6 µM

CCN(CC)C(=S)SC1O[C@H](COC(C)=O)[C@@H](OC(C)=O)[C@H](OC(C)=O)[C@H]1OC(C)=O (stereo partly drawn) [Tetra-DDC, β-D-glucopyranose, 1-thio-, 2,3,4,6-tetraacetate 1-(N,N-diethylcarbamodithioate)]
IC50 [4, 12]: 53.4 ± 11.5 µM

CCN(CC)C(=S)SC1OC[C@@H](O)[C@H](O)[C@H]1O (stereo partly shown) [XY-DDC, Xylosyl diethyldithiocarbamate]
IC50 [5, 9]: 6.9 ± 2.6 µM
